{
  "source": "paper PMC11856108",
  "about": "“Capsaicin (But Not Other Vanillins) Enhances Estrogen Binding to Its Receptor: Implications for Power Sports and Cancers” (Life, 2025)",
  "key": {"Mice: TRPV1+ vs. TRPV1-": {"test_system": "Mice: TRPV1+ vs. TRPV1-", "set-up": "method as in PMID 32400193", "details": "cited from earlier work"}, "[1]": {"set-up": "method as in PMID 26247812", "details": "DPPC mem-brane model; cited from earlier work"}, "insulin receptor (IR)": {"test_system": "insulin receptor (IR)", "experiment": "Effect on INS binding to its receptor by ultraviolet spectroscopy", "details": "INS 1 µM with CAP 0.1-100 µM, or CAP 25 µM with INS 10 nM-10 µM", "experimental": "[17, 19, 20, 21, 22, 23]. […] Because CAP binds to INS, it was possible that it might antagonize INS binding to its receptor. […] Two types of ultraviolet spectroscopy experiments were performed. In one, INS (1 µM) and the IR were kept constant and the concentration of CAP increased from 0.1 µM to 100 µM. In the other, the CAP (25 µM) and IR were kept constant and the concentration of INS increased from 10 nM to 10 µM. In neither experiment was any significant change in the INS binding curve observed."}, "Mice [2]": {"test_system": "Mice", "set-up": "method as in PMID 23958300", "details": "cited from earlier work"}, "Human [3]": {"test_system": "Human", "set-up": "method as in PMID 25621172", "details": "cited from earlier work"}, "Mice [4]": {"test_system": "Mice", "set-up": "method as in PMID 38700794", "details": "cited from earlier work"}, "Human HepG2 cells [5]": {"test_system": "Human HepG2 cells", "set-up": "method as in PMID 30987128", "details": "cited from earlier work"}, "Human HepG2 cells [6]": {"test_system": "Human HepG2 cells", "set-up": "method as in PMID 25621172", "details": "cited from earlier work"}, "Human (male)": {"test_system": "Human (male)", "set-up": "method as in PMID 17615999", "details": "cited from earlier work"}, "Human [7]": {"test_system": "Human", "set-up": "method as in PMID 30668390", "details": "cited from earlier work"}},
  "note": "“Also recorded” adds a separate entry of the source. Read-outs that look alike come from different tables or passages of the source.",
  "data": [
    {"smiles": "COc1cc(CNC(=O)CCCC/C=C/C(C)C)ccc1O", "note": "[Capsaicin, trans-8-methyl-N-vanillyl-6-nonenamide]", "values": [
      {"measurement": "Cancer-Related Effects", "setting": "Mice: TRPV1+ vs. TRPV1-", "result": ">Chemoprevention"},
      {"measurement": "Downregulates or Inhibits", "setting": "Mice: TRPV1+ vs. TRPV1-", "result": ">Blocked metastatic burden >Mechanism unknown"},
      {"measurement": "Upregulates", "setting": "[1]", "result": ">Increases membrane fluidity"},
      {"measurement": "effect on INS binding to its receptor", "setting": "insulin receptor (IR)", "result": "no observable effect"},
      {"measurement": "effect on INS binding to its receptor", "setting": "insulin receptor (IR); listed as CAP", "result": "does not, apparently, alter INS binding to its receptor; also recorded: did not significantly affect INS binding to its receptor"},
      {"measurement": "Capsaicin Upregulates", "setting": "Mice [2]", "result": ">Glucose uptake via AMPK activation and increasing p38 MAPK phosphorylation >Stimulation of ROS generation"},
      {"measurement": "Cancer-Related Effects", "setting": "Human [3]", "result": ">Induces apoptosis"},
      {"measurement": "Downregulates or Inhibits", "setting": "Human [3]", "result": ">Bax/Bcl2 pathway → decreased expression of Bcl-2 (prosurvival gene)"},
      {"measurement": "Upregulates", "setting": "Human [3]", "result": ">Bax/Bcl2 pathways → increased expression of Bax (apoptotic gene)"},
      {"measurement": "Cancer-Related Effects", "setting": "Mice [4]", "result": ">Ameliorated changes to the histological structure, prostate weight and prostate index (prostate/body weight ratio)"},
      {"measurement": "Downregulates or Inhibits", "setting": "Mice [4]", "result": ">TGF-β1/Smad signaling pathway → expression of E-cadherin, TGFBR2, TGF-β1 and p-Smad2/3 >IGF-1/AKT signaling pathway → expression of IGF-1, IGF-1R, p-AKT and RAGE >Androgen signaling pathway → expression of 5-αreductase type II, AR and PSA"},
      {"measurement": "Upregulates", "setting": "Mice [4]", "result": ">TGF-β1/Smad signaling pathway → expression of N-cadherin, vimentin, fibronectin >TRPV-1-mediated apoptosis"},
      {"measurement": "Capsaicin Upregulates", "setting": "Human HepG2 cells [5]", "result": ">Activation of AMPK pathway"},
      {"measurement": "Downregulates or Inhibits", "setting": "Human HepG2 cells [5]", "result": "> Lipogenesis > Inhibition of AKT/mTOR pathway"},
      {"measurement": "Cancer-Related Effects", "setting": "Human HepG2 cells [6]", "result": ">Sensitizes human cancer cells to cytocidal effects of chemotherapeutic agents >Selectivity to kill cancer cells with minimal damage to normal cells"},
      {"measurement": "Downregulates or Inhibits", "setting": "Human HepG2 cells [6]", "result": ">MDR-1 pathway → downregulates MDR-1 transcription (improves sensitivity)"},
      {"measurement": "Capsaicin Upregulates", "setting": "Human (male)", "result": ">Sympathetic modulation (adrenal catecholamine secretion) and thermogenesis"},
      {"measurement": "Cancer-Related Effects", "setting": "Human [7]", "result": ">Inhibits cell proliferation"},
      {"measurement": "Downregulates or Inhibits", "setting": "Human [7]", "result": ">Cell cycle arrest in G0/G1 and G2/M phase >Suppresses ROS production"},
      {"measurement": "Upregulates", "setting": "Human [7]", "result": ">Increase in reduced glutathione and DPPH"}
    ]}
  ]
}
